Laboratory results as given in patent US8101180B2, “Anti-IGF-IR and/or anti-insulin/IGF-I hybrid receptors antibodies and uses thereof” (Pierre Fabre Medicament, priority 2002, dated 2012).
Entries after “also recorded” stand apart in the source; their conditions may differ.

Columns and labels:
Hybrid-R = assay: Immunoprecipitation of Hybrid-R from R+/IR-A and R+/IR-B cell lysates; assay type: binding
From the text: (§1) The used cells for this study are listed thereafter: • R+: R− fibroblasts stably transfected with the IGF-I receptor (IGF-IR) cDNA • R−/IR-A: R− fibroblasts stably transfected with the insulin receptor isoform A (IR-A) cDNA • R−/IR-B:R− fibroblasts stably transfected with the insulin receptor isoform B (IR-B) cDNA • R+/IR-A: R− fibroblasts stably co-transfected with the IGF-I and the insulin receptor isoform A cDNA and, therefore, expressing hybrid receptors A (Hybrid-RsA) • R+/IR-B: R− fibroblasts stably co-transfected with the IGF-I and the insulin receptor isoform B cDNA and, therefore, expressing hybrid receptors B (Hybrid-RsB)
(§2) For the obtention of cellular lysat, cells were solubilized in RIPA buffer and 4 mg protein used for immunoprecipitation.
(§3) Following immunoprecipitation, the pellet was resuspended in 2× sample buffer and subjected to SDS-PAGE (7.5% polyacrylamide).
(§4) Filters were blotted as follows: Filters containing R+ lysates (and therefore only IGF-IR) with an anti-IGF-IR β-subunit (Santa Cruz). Filters containing lysates from all the remaining cells with an antibody anti-IR β-subunit (Santa Cruz).

MCF-7 cells [1] = assay: IGF2-induced proliferation of MCF-7 cells; assay type: cell-based, human; conditions: IGF2 200 ng/ml; MAb 10 μg/ml
Procedure: As indicated above, IGF-IR is overexpressed by numerous tumors but it has furthermore been described that in a good part of the cancers of the breast and of the colon especially, the proliferation signal is given to this receptor via IGF2 (sometimes written IGF-II or IGFII). […] In order to do this, cells were inoculated into 96-well plates, deprived of fetal calf serum and stimulated by the addition of 200 ng of IGF2 per ml, final concentration, of medium, in the presence and in the absence of the MAb to be tested introduced at a concentration of 10 μg/ml.

A549 tumor = assay: A549 non-small cell lung tumor subcutaneous xenograft; assay type: in vivo, nude mice; conditions: s.c. xenograft; for inhibition of A549 tumor growth in vivo, murine versus humanized antibody: 125 μg/dose twice per week i.p.
Procedure: Navelbine is a chemotherapy compound indicated in non-small cell cancer of the lung and in metastatic cancer of the breast. […] For this study, 5·10^6 A549 cells were grafted subcutaneously on the right flank of the mouse. Five days after the cell graft, the tumors are measurable and the treatments with MAb and/or navelbine are commenced. The MAb dose is always 250 μg/dose/mouse, twice per week, intra-peritoneally. Concerning navelbine, it will be administered at the maximum dose tolerated by the mouse or 10 mg/kg, intraperitoneally. For this treatment three injections will be carried out at intervals of 7 days. During the coadministrations, the two products are mixed before injection.
For this study, nude mice are grafted s.c. with 5·10^6 A549 cells. Five days after the cell graft, the tumors are measured and a homogeneous batch of mice in terms of tumor volume is formed. Starting from this batch, groups of 6 mice are generated at random.
To do this, 5·10^6 A549 cells were implanted subcutaneously in nude mice. Five days after this implantation, the tumors were measured and groups of 6 mice were formed. […] This granule is essential to the establishment of any E2-dependent human tumor in this animal species.
These conjugates are administered according to the same modes as the groups given the chemotherapy compounds alone; • the animals of the control batch are given injections of PBS, administered according to the same frequency.
The weight of the mice and the tumor volume are evaluated twice a week. The tumor volumes are calculated according to the formula: ½ (length·width·height).

IR = assay: Immunoprecipitation of IR from R−/IR-A and R−/IR-B cell lysates; assay type: binding
From the text: as §1, §2, §3, §4

DU145 tumor = assay: DU145 androgen-independent prostate tumor xenograft; assay type: in vivo, nude mice; conditions: 250 μg/dose/mouse twice per week i.p.
Procedure: (§5) In these 4 models, the treatment was carried out twice per week i.p. at a rate of 250 μg/dose/mouse.

MCF-7 cells [2] = assay: Cell cycle of MCF-7 cells with IGF1; assay type: cell-based, human; conditions: MCF-7 cells, 24 hours
Procedure: The inhibition of the cell growth observed in vitro on the line MCF-7 should be manifested by an effect on the cell cycle. In order to reply to this question, 4·10^5 cells are inoculated into 6-well plates. […] After incubation for 24 hours, the cells are recovered for the study of the cell cycle.

[3] = system: A549 cells implanted intrapleurally; assay: Orthotopic (intrapleural) A549 model, survival; conditions: 10^6 A549 cells intrapleural; Example 3b: 500 μg/mouse challenge then 250 μg twice per week
Procedure: In order to evaluate our antibody in a model closer to reality, the A549 cells were implanted in an intrapleural location. […] In the study which was carried out, 10^6 A549 cells were injected intrapleurally into female nude mice. 7 days after implantation, the mice were divided into 2 batches of 22.
In order to evaluate the antitumor activity of an antibody mixture directed respectively against IGF-IR and EGFR, 10^6 A549 cells (non-small cell lung cancer) were implanted in the intrapleural cavity of nude mice.
For the combined therapy, antibodies were mixed prior to the injection.
The T/C % are calculated according the following formula, [MEDIAN OF TREATED MICE/MEDIAN OF CONTROL MICE×100].

[4] = system: noninfected Sf9 insect cells; assay: FACS labeling of noninfected Sf9 insect cells; assay type: binding; conditions: FACScan
From the text: In FIG. 4B, Sf9 cells uniquely expressing IGF-IR are labeled with αIR3 (2) or anti-IR(3), the peak (1) representing the single cells. In FIG. 4C, Sf9 cells uniquely expressing IR are labeled with an anti-IR (3) or αIR3 (2), the peak (1) representing the single cells.
evaluating the supernatants of hybridomas positive in the two first screenings in terms of differential recognition of IGF-IR and of IR on insect cells infected with baculoviruses respectively expressing IGF-IR or IR,
For the immunization stage, mice were injected twice, by the subcutaneous route, with 8 μg of recombinant IGF-IR. Three days before the fusion of the cells of the […] with the cells of the murine myeloma Sp2OAg14, the mice were stimulated by an intravenous injection of 3 μg of the recombinant receptor. Fourteen days after the fusion, the supernatants of hybridomas were screened by ELISA, on plates sensitized by recombinant IGF-IR. The hybridomas whose supernatants were found positive were conserved and amplified before being tested on the FACScan so as to verify that the antibodies produced were likewise capable of recognizing native IGF-IR. In order to do this, MCF-7 cells from an estrogen-dependent tumor of the breast overexpressing IGF-IR were incubated with each of the culture supernatants produced by the hybridomas selected in ELISA. […]

BxPC3 tumor = assay: BxPC3 pancreatic cancer xenograft; assay type: in vivo, nude mice; conditions: 250 μg/dose/mouse twice per week i.p.
Procedure: as §5

MCF-7 cells [5] = assay: IGF1-induced proliferation of MCF-7 cells (3H thymidine incorporation); assay type: cell-based, human; conditions: antibody 10 μg/ml; IGF-I 1 to 50 ng/ml
Procedure: The cell proliferation is evaluated by following the incorporation of ^3H thymidine. The commercial antibody αIR3 is used as a positive control of the experiment.
The cell proliferation is estimated by following on the β counter the incorporation of tritiated thymidine by the cells. The results are expressed as a proliferative index.

A549 cells = assay: ADCC with human NK cells on A549 cells (51Cr); assay type: cell-based; conditions: 4 hours, 10 μg antibody per 5·10^5 cells
Procedure: In order to verify this point, NK (Natural Killer) cells coming from the peripheral blood of human donors are placed in the presence of A549 or MCF-7 cells previously incubated for 4 hours with 10 μg of 7H2HM antibody per 5·10^5 cells and labeled with ^51Cr ([…]).

Chain of Hybrid-R (P08069 31-736 limits assumed): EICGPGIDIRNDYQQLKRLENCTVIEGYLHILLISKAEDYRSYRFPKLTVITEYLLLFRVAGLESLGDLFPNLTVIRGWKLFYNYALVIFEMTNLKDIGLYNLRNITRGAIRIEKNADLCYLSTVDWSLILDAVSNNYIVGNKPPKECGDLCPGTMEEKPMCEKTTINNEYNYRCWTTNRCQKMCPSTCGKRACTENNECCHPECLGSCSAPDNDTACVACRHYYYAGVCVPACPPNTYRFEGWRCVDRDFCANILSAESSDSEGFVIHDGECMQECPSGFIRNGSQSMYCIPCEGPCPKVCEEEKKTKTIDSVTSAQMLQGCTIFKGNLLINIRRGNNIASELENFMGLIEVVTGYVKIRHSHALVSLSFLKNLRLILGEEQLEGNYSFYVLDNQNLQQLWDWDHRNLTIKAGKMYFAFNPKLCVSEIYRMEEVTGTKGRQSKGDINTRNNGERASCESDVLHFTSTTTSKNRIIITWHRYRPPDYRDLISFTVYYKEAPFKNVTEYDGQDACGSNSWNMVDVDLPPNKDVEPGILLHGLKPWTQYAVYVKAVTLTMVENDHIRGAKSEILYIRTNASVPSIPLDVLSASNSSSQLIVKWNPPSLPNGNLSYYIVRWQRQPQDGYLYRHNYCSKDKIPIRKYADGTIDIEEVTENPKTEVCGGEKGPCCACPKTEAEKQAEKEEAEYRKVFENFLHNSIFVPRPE
Chain of Hybrid-R (P08069 741-1367 limits assumed): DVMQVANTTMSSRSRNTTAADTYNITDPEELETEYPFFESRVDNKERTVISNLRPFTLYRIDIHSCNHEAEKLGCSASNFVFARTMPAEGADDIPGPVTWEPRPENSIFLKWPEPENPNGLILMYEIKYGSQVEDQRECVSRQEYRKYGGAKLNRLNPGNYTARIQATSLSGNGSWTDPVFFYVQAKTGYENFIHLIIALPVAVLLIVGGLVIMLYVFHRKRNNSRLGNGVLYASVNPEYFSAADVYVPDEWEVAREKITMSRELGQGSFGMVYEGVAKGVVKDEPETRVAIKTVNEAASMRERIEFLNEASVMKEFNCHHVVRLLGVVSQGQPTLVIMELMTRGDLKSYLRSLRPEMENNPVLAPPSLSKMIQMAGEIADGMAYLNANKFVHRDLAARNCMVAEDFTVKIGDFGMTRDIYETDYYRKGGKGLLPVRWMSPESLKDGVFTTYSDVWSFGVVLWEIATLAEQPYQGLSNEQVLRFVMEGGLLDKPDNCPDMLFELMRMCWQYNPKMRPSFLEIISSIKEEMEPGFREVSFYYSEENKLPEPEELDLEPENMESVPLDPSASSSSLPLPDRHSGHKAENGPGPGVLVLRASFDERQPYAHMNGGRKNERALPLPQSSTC

| Substance | recognition of Hybrid-R by immunoprecipitation (Hybrid-R) | inhibition of IGF2-induced growth of MCF-7 cells (MCF-7 cells [1]) | inhibition of A549 tumor growth in vivo, murine versus humanized antibody (A549 tumor) | inhibition of A549 tumor growth in vivo (A549 tumor; 250 μg/dose/mouse twice per week i.p.) | immunoprecipitation of IR (IR) | antitumor activity in DU145 model (DU145 tumor) | inhibition of IGF1-induced entry into the cell cycle (MCF-7 cells [2]) | survival of mice orthotopically implanted with A549 cells [3] | MFI (Mean fluorescence intensity), Noninfected cells [4] | antitumor activity in BxPC3 model (BxPC3 tumor) | inhibition of IGF1-induced proliferation of MCF-7 cells (MCF-7 cells [5]) | ADCC on A549 cells (A549 cells) |
| --- | --- | --- | --- | --- | --- | --- | --- | --- | --- | --- | --- | --- |
| 7C10: murine monoclonal anti-IGF-IR IgG1 secreted by the hybridoma deposited at the CNCM under the number I-2717 | recognizes Hybrid-R | totally inhibits the growth induced by IGF2; also recorded: significantly better than that of 1H7 | significant inhibition of the tumor growth | significant activity; also recorded: as active as the conventional treatment with navelbine; also recorded: significant decrease in the tumor growth | Neither 7C10 nor h7C10 appreciably immunoprecipitate IR | significant activity | significant inhibition of the entry into the cycle | significant extension of survival; also recorded: comparable and a significant gain in survival | 8.6 | significant activity | significantly inhibits the growth | – |
| h7C10: humanized 7C10 anti-IGF-IR antibody, isotype IgG1 (humanized 1 written 7H2HM) | recognizes Hybrid-R | – | exactly the same intensity as that observed with its murine counterpart | – | Neither 7C10 nor h7C10 appreciably immunoprecipitate IR | – | significant inhibition of the entry into the cycle | – | – | – | perfectly preserved their properties of inhibiting the IGF1-induced growth | capable of inducing an ADCC |
